The values below come from PMC12311729, “Probing the Mechanism of L‑DOPA 2,3-Dioxygenase Using Synthetic Derivatives of 3,4-Dihydroxyhydrocinnamic Acid” (ACS Omega, 2025).

Data set [1] is described as follows: Determination of pKa values by spectrophotometric titration. The following applies: for pK a value: first catecholic deprotonation, determined spectroscopically from pH 3 to 12.5.
Procedure: A buffer system utilizing five different buffers was prepared to cover the pH range of 3.0 to 12.50. A Thermo Scientific Orion Star A211 pH meter was used to measure and determine the pH of each buffer. The pH meter was calibrated using three- and four-point calibration with pH values of 4.00, 7.01, and 10.01 and 4.00, 7.01, 10.01, and 12.00, respectively.
The buffer systems were prepared as previously described and included: NaOAc/HOAc buffers (C = 0.1 M; I = 0.1 M) were used to cover the pH range of 3.0 to 5.50. KH2PO4/K2HPO4 buffers (C = 0.05 M; I = 0.1 M) were used to cover the pH range of 6.00 to 8.00. CHES buffers (C = 0.05 M; I = 0.1 M) were used to cover the pH range of 8.50 to 10.50. Na2HPO4/Na3PO4 buffers (C = 0.05 M; I = 0.1 M) were used to cover the pH range of 11.00 to 12.00. KCl buffers (C = 0.1 M; I = 0.1 M) were used to cover the pH range of 12.00 to 12.50.
The absorbance spectra of the compounds were determined at each pH as previously described. Briefly, a stock solution was prepared for each compound by weighing 2 mg of the compound using a high-precision analytical balance. Each compound was then dissolved in DMSO at a concentration of 10 mM. A UV-transparent 96-well microplate (Corning clear acrylic 96-well UV plate with a UV-transparent flat bottom) was loaded with 196 μL of buffer solution and 4 μL of the catechol stock in each well to get a final concentration of 200 μM. DMSO (4 μL) was added to 196 μL of the appropriate buffer to produce a blank solution for each buffer.
The 96-well plate was loaded into the microplate reader and incubated at 30 °C and shaken for 10 min before the reading. Absorbance readings were completed by using a Synergy HTX 15032517 microplate reader. Each well was read at wavelengths from 210 to 600 nm with 2-nm increments for each scan over a duration of 60 min.
The data were analyzed as previously described. Raw UV-spectra scans were exported to the Excel program. They were first processed by subtracting the reading of the blank solutions from the reading of each compound at the corresponding wavelengths. […] Finally, the spectral difference between the pH 3.0 buffer and the spectra at all other pH values was plotted. Additionally, the spectral difference between the pH 4.0 buffer and the spectra at all other higher pH values was plotted. The wavelengths for the maximum positive and negative absorbance were determined by using the graphs of the spectral difference plots, both for the pH 3.0 and pH 4.0 spectral difference plots. The absolute maximum positive and total absorbance differences at these chosen wavelengths were plotted against the pH of each buffer. The data were imported into the Origin 6.0 program, and the pK a values were determined with a nonlinear regression using eq : 1 Absorbancetotal=εHA−εA−[10^(pH−pKa)]/1+10^(pH−pKa)×[St]
εHA is the extinction coefficients of the acid form of the compound, and εA ^– is the extinction coefficient of the base form of the compound (i.e., the minima and maxima of the absorbance difference curve, respectively), and [S t] is the total compound concentration.
The test system of data set [2] is S. hygroscopicus jingganensis L-DOPA 2,3-dioxygenase (ShjDDO). Description: Presteady state stopped-flow kinetic assay, modeled with KinTek Explorer. The class given is biochemical, Streptomyces hygroscopicus jingganensis. As for the experimental part:
Reaction temperature was controlled at 14 ± 0.5 °C by a circulating water bath. […] Stock solutions of 6-[…] prepared in DMSO. […] ShjDDO was reconstituted with iron(II) sulfate heptahydrate, gel filtered into the reaction buffer, and loaded into the drive syringe. […] Fifteen to twenty progress curves from the same experimental conditions were averaged in the KinTek Stopped Flow software and exported to KinTek Explorer for modeling. Between experiments, the instrument drive syringes were cleaned with acid, base, and water; soaked in 1% Hellmanex detergent for 30 min at ∼30-35 °C; thoroughly rinsed with water; and stored in 10% ethanol. […] state kinetic data were analyzed by fitting to simulated mechanisms using the KinTek Explorer software (KinTek Corp, Austin, TX). KinTek Explorer simulates experimental results by using direct numerical integration of rate equations for the kinetic model and yields estimates for the rate constants of microscopic steps. […] state experiments were modeled using KinTek Explorer according to a defined reaction pathway, as described in the Results and Discussion and shown in Scheme . The extinction coefficients of the DHHCA and 6-[…] semialdehyde products were independently determined as described above and fixed during fitting. Some rates were fixed as either “fast” (i.e., 1 × 10^9) or very slow (1 × 10^-12, i.e., ∼0) as described in the text. The equilibrium represented by k 1 and k -1 was fixed at the ratio of substrate charge states as predicted by the experimentally determined pK a values (Table ) and the Henderson-Hasselbach equation. Extinction coefficients were fitted and/or fixed during fitting as described in the text and interpreted using the observable expression: […], where a is the extinction coefficient applied to ESQ, b is the independently experimentally determined extinction coefficient on P, and c is a y-axis offset. […] ESO2 is the ternary complex of enzyme, substrate, and oxygen. ESQ represents the putative semiquinone intermediate, a UV-absorbing species, and ESQ_X is the species formed from the nonproductive quenching of the semiquinone. […] EP is the enzyme-product complex, and P is the free semialdehyde product. P can then degrade nonenzymatically to the spectroscopically silent P_X. Errors on each fit were calculated from 2[…] at 0.83 Chi^2. The KinTek Explorer program FitSpace explores the uniqueness of a particular fit to the data by measuring the dependence of the sum square error (SSE) on each pair of parameters, while allowing all other parameters to vary in seeking the best fit. […]

[3] abbreviates: pH 7.35, 14 °C, ∼1000 μM O2, 380 nm, fitted, ± is FitSpace range.

For the compound `N#Cc1cc(O)c(O)cc1CCC(=O)O` [6-CyanoDHHCA (5), 3-(2-cyano-4,5-dihydroxyphenyl) propanoic acid], the “ratio of charge states (k1/k-1) predicted by pKa value and Henderson-Hasselbach equation” value in data set [1] (at pH 7.35) is 1.44. In data set [1], this compound yielded a pK a value of 7.51 ± 0.06. Also, the pK a value in data set [1] (listed as 6-cyanoDHHCA) is 7.51. Further, the “Catecholic pKa value relative to L-DOPA x 100” value in data set [1] (percentage of the value for L-DOPA) is reported as 85%. Further, in data set [2] (setting [3]), the “k6 (productive formation of EI)” value was approximately 0.55 s⁻¹ and the “k7 (rate of inactivation, ESQ to ESQ_X)” value was approximately 0.3 s⁻¹. Besides, in data set [2] (ratio k6/k7, presteady state with ShjDDO), the “productive formation of EI (k 6) faster than the rate of inactivation (k 7)” value worked out at 1.85 times.
